The values below are quoted from earlier work in US20020177585A1, “Uses of targeted oxidative therapeutic formulation in arteriosclerosis” (priority 2001, published 2002).

One series deals with E. coli. The conditions noted are these: increasing concentration of peroxide ex-vivo.
For series [1], the system named is peroxide-sensitive E. coli. The conditions noted are these: infused into the blood of infected rabbits.

Turning to `OO` [hydrogen peroxide, Hydrogen peroxide], the direct bactericidal activity result in the series on E. coli is recorded as “no evidence of direct bactericidal activity”. Further, the bactericidal effect result in series [1] is “no bactericidal effect”.
